Experiments:
[1] = test system: IL-23 induced IFNγ production; test: Ex vivo whole blood IL-23-induced IFNγ production assay, FIH MAD cohorts; assay type: in vivo
Method: An ex vivo whole blood IL-23 induced IFNγ assay was used to evaluate the systemic pharmacodynamic activity of the orally administered peptide of SEQ ID NO: 1 in the first-in-human study. […] On Days 1 and 10, when the assay was performed, subjects received their dose of placebo or peptide of SEQ ID NO: 1 following an overnight fast of approximately 10 hours and remained fasted for approximately 4 hours following dosing. After oral dosing on days 1 and 10, whole blood from the subjects was stimulated ex vivo with either IL-2 (10 ng/mL) and IL-18 (20 ng/mL) or IL-2 (10 ng/mL), IL-18 (20 ng/mL), and IL-23 (0.5 ng/mL) in TruCulture™ tubes (Rules Based Medicine, Q^2 solutions company) for stimulation of IFNγ production. The production of IFNγ is expected to be suppressed if IL-23R signaling is inhibited. Therefore, lower IFNγ production in the assay is associated with sufficient exposure to achieve systemic pharmacodynamic (PD) activity of orally dosed peptide of SEQ ID NO: 1.
Whole blood was collected in TruCulture™ tubes according to manufacturer instructions, the tubes were incubated at 37° C. in a block thermostat for 24 hours (±1 hour). Following incubation at 37° C., supernatants were harvested according to TruCultube™ tube manufacturer instructions (Rules Based Medicine, Q^2 solutions company). An ELISA assay was used to quantify the levels of IFNg in the supernatants.

[2] = test system: rat IL-23 induced skin inflammation model; test: Rat IL-23 induced ear thickening; assay type: in vivo, Sprague-Dawley rats; design: key to IL-23 induced ear thickening, comparison to control (significance): ns: not significant; **: p < 0.01; ***: p < 0.001; ****: p < 0.0001; conditions: for IL-23 induced ear thickening, comparison to control (significance): control Vehicle
Method: Ear inflammation was induced in Sprague-Dawley rats by daily intradermal injection of recombinant rat IL-23 on study days 0-3. Treatment with the peptide of SEQ ID NO: 1 (dose response by oral gavage; 1, 3, 10, 30, 100, and 300 mg/kg, twice a day) was initiated prophylactically starting one day prior to and continued through day 3 after induction of inflammation. All rats were humanely euthanized on day 4. An anti-IL-23 monoclonal antibody (administered intraperitoneally on days −1 and day 3) was included in all studies as a positive control and comparator.
Recombinant rat IL-23 was diluted with PBS to a concentration of 75 μg/mL, divided into 2.0 mL aliquots, and stored at −80° C. Daily from day 0 through day 3, rats were anesthetized with isoflurane and IL-23 was intradermally injected (i.d.) into the right ear (1.5 μg in a volume of 20 μL). In the control group, 20 μL of PBS was injected.
Starting the morning prior to IL-23 injection through the evening of day 3, rats were dosed with either vehicle (phosphate buffer) or the peptide of SEQ ID NO: 1 compound twice daily (approximately 10 hours apart between doses during the day) by oral gavage (p.o.) in a volume of 5 mL/kg. In one experiment, the peptide of SEQ ID NO: 1 was also administered subcutaneously (s.c.) in a volume of 5 mL/kg.
Anti-IL-23p19 antibody or isotype antibody was administered via intraperitoneal injection (i.p.) in a volume of 5 mL/kg on days −1 and 3.
The purpose of the rat ear thickening experiment is to determine whether the orally dosed peptide of SEQ ID NO: 1 has sufficient systemic exposure to provide inhibition of IL-23R in skin tissue, thus modeling orally dosed therapeutic efficacy in psoriatic skin tissue. The animals from Example 19 were also used for Example 20. On day 0, prior to IL-23 injection, the ipsilateral ears averaged approximately 0.4 mm. In rats injected with saline, the ears did swell as a result of the repeated intradermal injections, by an average of 0.053 mm by day 4. By comparison, injection of IL-23 caused the ears of both vehicle-treated and isotype antibody-treated rats to progressively increase in thickness, reaching an average of approximately 0.240 to 0.242 mm by day 4, respectively. […] Reductions in ear thickness at doses of 2 mg/kg, s.c. and 20 mg/kg, p.o., q.d. were not statistically significant (FIG. 9 and Table 15).

[3] = human, 25 mg, 100 mg, 300 mg and 1000 mg cohorts, oral once a day

With `CC(=O)NCCCC[C@@H]1NC(=O)[C@H](Cc2c[nH]c3c(C)cccc23)NC(=O)[C@H]([C@@H](C)O)NC(=O)[C@H](CC(N)=O)NC(=O)[C@@H](NC(C)=O)C(C)(C)SSC(C)(C)[C@@H](C(=O)N[C@@H](Cc2ccc(OCCN)cc2)C(=O)N[C@@H](Cc2ccc3ccccc3c2)C(=O)NC2(C(=O)N[C@@H](CCC(=O)O)C(=O)N[C@@H](CC(N)=O)C(=O)N[C@@H](Cc3cccnc3)C(=O)N(C)CC(N)=O)CCOCC2)NC1=O` [SEQ ID NO: 1, Ac-[Pen]*—N-T-[W(7-Me)]-[Lys(Ac)]-[Pen]*-Phe[4-(2-aminoethoxy)]-[2-Nal]-[THP]-E-N-[3-Pal]-Sarc-NH2] the “inhibition of IL-23 stimulated IFNγ production in human whole blood” value ([1]; 10-1000 mg oral once a day, Day 1 and Day 10) was “dose dependent inhibition”, the “maximum inhibition of IL-23 induced IFNγ production (mean systemic PD activity)” value [1, 3] was roughly 100% and the “time for which >50% inhibition of IFNγ production was maintained” value [1, 3] was no less than 8 h. For the same molecule, the “IL-23 induced ear thickening, comparison to control (significance)” value (“IL-23 induced ear thickening … (significance)” below) ([2]; 1 mg/kg, p.o., b.i.d., Day 1) was “ns”, the “IL-23 induced ear thickening … (significance)” value ([2]; 1 mg/kg, p.o., b.i.d., Day 2) was “ns” and the “IL-23 induced ear thickening … (significance)” value ([2]; 1 mg/kg, p.o., b.i.d., Day 3) was “**** (p < 0.0001)”. The “IL-23 induced ear thickening … (significance)” value ([2]; 1 mg/kg, p.o., b.i.d., Day 4) was “**** (p < 0.0001)”, the “IL-23 induced ear thickening … (significance)” value ([2]; 2 mg/kg, s.c., b.i.d., Day 1) was “ns” and the “IL-23 induced ear thickening … (significance)” value ([2]; 2 mg/kg, s.c., b.i.d., Day 2) was “ns”. For the same molecule, the “IL-23 induced ear thickening … (significance)” value ([2]; 2 mg/kg, s.c., b.i.d., Day 3) was “ns”, the “IL-23 induced ear thickening … (significance)” value ([2]; 2 mg/kg, s.c., b.i.d., Day 4) was “ns” and the “IL-23 induced ear thickening … (significance)” value ([2]; 3 mg/kg, p.o., b.i.d., Day 1) was “ns”. The “IL-23 induced ear thickening … (significance)” value ([2]; 3 mg/kg, p.o., b.i.d., Day 2) was “ns”, the “IL-23 induced ear thickening … (significance)” value ([2]; 3 mg/kg, p.o., b.i.d., Day 3) was “*** (p < 0.001)” and the “IL-23 induced ear thickening … (significance)” value ([2]; 3 mg/kg, p.o., b.i.d., Day 4) was “*** (p < 0.001)”. The “IL-23 induced ear thickening … (significance)” value ([2]; 10 mg/kg, p.o., b.i.d., Day 1) was “ns”, the “IL-23 induced ear thickening … (significance)” value ([2]; 10 mg/kg, p.o., b.i.d., Day 2) was “ns” and the “IL-23 induced ear thickening … (significance)” value ([2]; 10 mg/kg, p.o., b.i.d., Day 3) was “*** (p < 0.001)”. The “IL-23 induced ear thickening … (significance)” value ([2]; 10 mg/kg, p.o., b.i.d., Day 4) was “**** (p < 0.0001)”, the “IL-23 induced ear thickening … (significance)” value ([2]; 20 mg/kg, p.o., q.d., Day 1) was “ns” and the “IL-23 induced ear thickening … (significance)” value ([2]; 20 mg/kg, p.o., q.d., Day 2) was “ns”. For the same molecule, the “IL-23 induced ear thickening … (significance)” value ([2]; 20 mg/kg, p.o., q.d., Day 3) was “ns”, the “IL-23 induced ear thickening … (significance)” value ([2]; 20 mg/kg, p.o., q.d., Day 4) was “ns” and the “IL-23 induced ear thickening … (significance)” value ([2]; 30 mg/kg, p.o., b.i.d., Day 1) was “ns”. The “IL-23 induced ear thickening … (significance)” value ([2]; 30 mg/kg, p.o., b.i.d., Day 3) was “**** (p < 0.0001)”, the “IL-23 induced ear thickening … (significance)” value ([2]; 30 mg/kg, p.o., b.i.d., Day 4) was “**** (p < 0.0001)” and the “IL-23 induced ear thickening … (significance)” value ([2]; 100 mg/kg, p.o., b.i.d., Day 1) was “ns”. The “IL-23 induced ear thickening … (significance)” value ([2]; 100 mg/kg, p.o., b.i.d., Day 2) was “ns”, the “IL-23 induced ear thickening … (significance)” value ([2]; 100 mg/kg, p.o., b.i.d., Day 3) was “**** (p < 0.0001)” and the “IL-23 induced ear thickening … (significance)” value ([2]; 100 mg/kg, p.o., b.i.d., Day 4) was “**** (p < 0.0001)”. For the same molecule, the “day 4 ear swelling, average” value ([2]; 300 mg/kg, b.i.d., oral) was 0.120 mm, the “IL-23 induced ear thickening … (significance)” value ([2]; 300 mg/kg, p.o., b.i.d., Day 1) was “ns” and the “IL-23 induced ear thickening … (significance)” value ([2]; 300 mg/kg, p.o., b.i.d., Day 2) was “ns”. The “IL-23 induced ear thickening … (significance)” value ([2]; 300 mg/kg, p.o., b.i.d., Day 3) was “*** (p < 0.001)”, the “IL-23 induced ear thickening … (significance)” value ([2]; 300 mg/kg, p.o., b.i.d., Day 4) was “**** (p < 0.0001)” and the “efficacy on ear thickening” value ([2]; doses of 10 mg/kg (p.o., b.i.d.) and above) was “equaled or exceeded that of anti-IL-23 antibody treatment”. The “IL-23 induced ear thickening” value ([2]; orally administered) was “prevented”.
